According to ChEMBL document CHEMBL4715723, “Discovery and development of benzo-[1,2,4]-triazolo-[1,4]-oxazepine GPR142 agonists for the treatment of diabetes” (Bioorg Med Chem Lett, 2016):

Assays:
Cytochrome P450 2C9 = Cytochrome P450 2C9 (Homo sapiens, UniProt P11712); experiment: Inhibition of human liver microsomes CYP2C9 using diclofenac as substrate by MUX-MS/MS analysis; assay type: ADME, Microsome
[1] = target: T1, Probable G-protein coupled receptor 142 (Homo sapiens, UniProt Q7Z601); experiment: Agonist activity at human GPR142 expressed in CHO cells measured for 3 mins by Fluo-4M dye based FLIPR assay; assay type: cell-based; conditions: read-out: IC50 (the source's name)
T1 sequence (Q7Z601 whole entry): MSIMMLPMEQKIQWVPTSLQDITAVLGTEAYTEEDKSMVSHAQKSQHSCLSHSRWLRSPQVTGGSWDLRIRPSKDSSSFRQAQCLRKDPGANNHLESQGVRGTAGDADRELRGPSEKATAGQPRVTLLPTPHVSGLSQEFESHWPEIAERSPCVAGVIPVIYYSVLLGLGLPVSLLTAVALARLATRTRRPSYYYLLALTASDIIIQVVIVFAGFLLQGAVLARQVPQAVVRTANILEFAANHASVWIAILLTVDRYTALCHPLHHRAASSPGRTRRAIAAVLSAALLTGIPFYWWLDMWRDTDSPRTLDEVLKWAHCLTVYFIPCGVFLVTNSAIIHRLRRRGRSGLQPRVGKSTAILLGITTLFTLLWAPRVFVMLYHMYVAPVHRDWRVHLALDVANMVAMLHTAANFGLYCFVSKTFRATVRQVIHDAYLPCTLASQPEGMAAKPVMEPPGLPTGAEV

Cytochrome P450 3A4 = Cytochrome P450 3A4 (Homo sapiens, UniProt P08684); experiment: Inhibition of human liver microsomes CYP3A4 using testosterone as substrate by MUX-MS/MS analysis; assay type: ADME, Microsome
Cytochrome P450 2D6 = Cytochrome P450 2D6 (Homo sapiens, UniProt P10635); experiment: Inhibition of human liver microsomes CYP2D6 using dextromethorphan as substrate by MUX-MS/MS analysis; assay type: ADME, Microsome
[2] = target: Voltage-gated inwardly rectifying potassium channel KCNH2 (Homo sapiens, UniProt Q12809); experiment: Inhibition of human ERG expressed in HEK293 cells assessed as reduction in S35-MK-0499 binding; assay type: cell-based
[3] = target: T2, Probable G-protein coupled receptor 142 (Mus musculus, UniProt Q7TQN9); experiment: Agonist activity at mouse GPR142 expressed in CHO cells measured for 3 mins by Fluo-4M dye based FLIPR assay; assay type: cell-based; conditions: read-out: IC50 (the source's name)
T2 sequence (Q7TQN9 whole entry): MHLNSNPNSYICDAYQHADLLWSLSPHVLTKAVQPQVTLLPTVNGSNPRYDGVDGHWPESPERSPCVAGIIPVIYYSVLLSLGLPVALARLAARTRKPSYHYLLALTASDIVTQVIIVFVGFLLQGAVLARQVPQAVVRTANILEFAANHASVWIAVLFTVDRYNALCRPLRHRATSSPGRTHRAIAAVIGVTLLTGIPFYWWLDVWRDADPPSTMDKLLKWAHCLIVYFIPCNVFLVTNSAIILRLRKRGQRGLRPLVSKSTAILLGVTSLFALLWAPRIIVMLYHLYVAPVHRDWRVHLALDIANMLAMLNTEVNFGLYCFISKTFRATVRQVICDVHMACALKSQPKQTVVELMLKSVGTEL

[4] = Protein binding in rat plasma assessed as unbound fraction; assay type: ADME, cell-free
[5] = Half life in rat at 2 mg/kg, po or 1 mg/kg, iv; assay type: ADME, organism-based; conditions: in vivo
[6] = Oral bioavailability in rat at 2 mg/kg; assay type: ADME, organism-based; conditions: in vivo
[7] = Volume of distribution at steady state in rat at 2 mg/kg, po or 1 mg/kg, iv; assay type: ADME, organism-based; conditions: in vivo, read-out: Vdss
[8] = Clearance in rat at 2 mg/kg, po or 1 mg/kg, iv; assay type: ADME, organism-based; conditions: in vivo

Chain of Voltage-gated inwardly rectifying potassium channel KCNH2 (Q12809 whole entry): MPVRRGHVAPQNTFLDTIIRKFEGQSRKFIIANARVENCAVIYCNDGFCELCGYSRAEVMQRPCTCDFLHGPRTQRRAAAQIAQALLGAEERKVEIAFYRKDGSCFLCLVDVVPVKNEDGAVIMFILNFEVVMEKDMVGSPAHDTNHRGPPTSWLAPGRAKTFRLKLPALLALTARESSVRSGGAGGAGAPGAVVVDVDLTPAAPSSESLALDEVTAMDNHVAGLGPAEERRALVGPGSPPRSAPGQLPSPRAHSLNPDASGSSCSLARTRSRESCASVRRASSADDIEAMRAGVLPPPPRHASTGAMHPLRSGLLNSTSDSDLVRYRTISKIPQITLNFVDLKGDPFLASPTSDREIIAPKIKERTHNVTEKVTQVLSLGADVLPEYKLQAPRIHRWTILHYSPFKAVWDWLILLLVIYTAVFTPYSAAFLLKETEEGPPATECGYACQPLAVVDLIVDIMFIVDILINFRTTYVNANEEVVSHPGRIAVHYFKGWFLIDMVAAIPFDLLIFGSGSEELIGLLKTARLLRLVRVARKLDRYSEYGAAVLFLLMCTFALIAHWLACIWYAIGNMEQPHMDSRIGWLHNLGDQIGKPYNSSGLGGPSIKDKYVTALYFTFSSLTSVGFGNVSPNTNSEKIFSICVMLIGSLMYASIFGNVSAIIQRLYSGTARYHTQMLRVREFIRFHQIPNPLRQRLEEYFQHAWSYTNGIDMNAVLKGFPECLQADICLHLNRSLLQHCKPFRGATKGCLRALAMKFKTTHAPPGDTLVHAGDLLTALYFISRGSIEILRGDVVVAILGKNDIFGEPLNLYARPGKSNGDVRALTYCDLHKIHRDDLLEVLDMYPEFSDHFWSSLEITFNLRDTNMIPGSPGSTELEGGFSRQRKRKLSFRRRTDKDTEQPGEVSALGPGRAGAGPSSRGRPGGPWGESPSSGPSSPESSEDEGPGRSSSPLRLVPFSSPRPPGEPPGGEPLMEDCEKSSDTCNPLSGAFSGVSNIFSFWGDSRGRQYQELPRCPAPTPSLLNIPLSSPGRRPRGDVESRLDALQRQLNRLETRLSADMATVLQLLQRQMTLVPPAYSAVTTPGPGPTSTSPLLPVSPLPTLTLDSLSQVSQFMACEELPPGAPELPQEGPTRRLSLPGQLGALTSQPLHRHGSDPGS
Chain of Cytochrome P450 2C9 (P11712 whole entry): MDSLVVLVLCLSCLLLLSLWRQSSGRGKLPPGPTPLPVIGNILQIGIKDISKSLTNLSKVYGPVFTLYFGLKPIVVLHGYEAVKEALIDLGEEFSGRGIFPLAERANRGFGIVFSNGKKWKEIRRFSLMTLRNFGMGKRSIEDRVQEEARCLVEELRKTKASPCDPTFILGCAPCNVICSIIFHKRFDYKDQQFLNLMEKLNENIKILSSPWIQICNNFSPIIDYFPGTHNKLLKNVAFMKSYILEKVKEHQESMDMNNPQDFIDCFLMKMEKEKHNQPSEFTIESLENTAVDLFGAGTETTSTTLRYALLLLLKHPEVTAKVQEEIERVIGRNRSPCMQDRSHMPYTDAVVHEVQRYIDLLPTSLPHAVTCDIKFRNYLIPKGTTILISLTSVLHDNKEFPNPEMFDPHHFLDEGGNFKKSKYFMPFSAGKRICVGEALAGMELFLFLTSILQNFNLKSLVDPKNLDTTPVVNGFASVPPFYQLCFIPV
Chain of Cytochrome P450 3A4 (P08684 whole entry): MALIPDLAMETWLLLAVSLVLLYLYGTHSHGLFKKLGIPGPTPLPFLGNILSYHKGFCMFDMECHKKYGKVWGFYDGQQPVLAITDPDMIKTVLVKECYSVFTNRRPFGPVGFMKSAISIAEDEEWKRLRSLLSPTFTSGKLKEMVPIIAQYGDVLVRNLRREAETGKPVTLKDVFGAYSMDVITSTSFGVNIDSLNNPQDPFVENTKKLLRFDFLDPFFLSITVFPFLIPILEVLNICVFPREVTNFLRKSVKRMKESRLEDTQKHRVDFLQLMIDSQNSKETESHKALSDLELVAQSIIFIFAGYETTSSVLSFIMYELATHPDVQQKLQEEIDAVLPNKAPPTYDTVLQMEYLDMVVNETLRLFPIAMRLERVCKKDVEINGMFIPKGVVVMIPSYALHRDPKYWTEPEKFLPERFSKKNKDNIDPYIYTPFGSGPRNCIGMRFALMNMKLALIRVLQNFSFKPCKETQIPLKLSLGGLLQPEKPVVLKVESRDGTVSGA
Chain of Cytochrome P450 2D6 (P10635 whole entry): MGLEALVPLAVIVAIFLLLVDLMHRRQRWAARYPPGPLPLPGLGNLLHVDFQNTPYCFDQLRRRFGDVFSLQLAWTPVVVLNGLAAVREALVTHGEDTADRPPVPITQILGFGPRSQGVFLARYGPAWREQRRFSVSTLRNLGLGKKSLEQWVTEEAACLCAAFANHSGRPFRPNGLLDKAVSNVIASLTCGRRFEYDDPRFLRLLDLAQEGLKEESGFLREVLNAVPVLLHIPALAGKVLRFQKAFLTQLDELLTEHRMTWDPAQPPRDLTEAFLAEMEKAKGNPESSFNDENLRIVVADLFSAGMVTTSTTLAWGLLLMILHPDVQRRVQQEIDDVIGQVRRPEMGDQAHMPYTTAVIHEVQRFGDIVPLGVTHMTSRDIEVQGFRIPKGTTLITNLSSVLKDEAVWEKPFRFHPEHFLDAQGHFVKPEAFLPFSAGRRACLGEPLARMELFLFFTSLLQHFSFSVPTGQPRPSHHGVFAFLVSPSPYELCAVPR

EC50 [1] | EC50 [3] | Structure (SMILES) | further results
708 nM | 157 nM | O=C(Nc1cccc(Cl)c1Cl)N1CCOc2ccc(-c3ccncc3)cc2C1 | –
146 nM | 158 nM | O=C(Nc1ccc(Cl)c(Cl)c1)N1CCNc2ccc(-c3ccncc3)cc2C1 | –
374 nM | – | COc1cccc(NC(=O)N2CCOc3ccc(-c4ccnc(C)c4)cc3C2)c1 | –
> 20000 nM | > 20000 nM | COc1ccc(NC(=O)N2CCOc3ccc(-c4ccncc4)cc3C2)cc1 | –
> 20000 nM | > 20000 nM | O=C(Nc1ccc(Cl)c(Cl)c1)N1Cc2ccc(-c3ccncc3)cc2C1 | –
1720 nM | 146 nM | O=C(Nc1cccc(Oc2ccccc2)c1)N1CCOc2ccc(-c3ccncc3)cc2C1 | –
> 20000 nM | 2570 nM | CN1CCN(C(=O)Nc2ccc(Cl)c(Cl)c2)Cc2cc(-c3ccncc3)ccc21 | –
2800 nM | 2570 nM | COc1cccc(NC(=O)N2CCOc3ccc(-c4ccnc(OC)c4)cc3C2)c1 | –
> 20000 nM | 4500 nM | CCCCN1CCN(C(=O)Nc2ccc(Cl)c(Cl)c2)Cc2cc(-c3ccncc3)ccc21 | –
810 nM | 448 nM | N#Cc1cccc(NC(=O)N2CCOc3ccc(-c4ccnc(N)c4)cc3C2)c1 | –
> 20000 nM | > 20000 nM | O=C(Nc1ccc(Cl)c(Cl)c1)N1CCCc2ccc(-c3ccncc3)cc21 | –

Further lines, the molecule ahead of its results:

Structure (SMILES) | EC50 [1] | EC50 [3] | further results
FC(F)(F)c1cccc(Nc2nnc3n2CCOc2ccc(-c4ccncc4)cc2-3)c1 | 48 nM | – | IC50 (Cytochrome P450 2C9): 531 nM; IC50 (Cytochrome P450 3A4): 516 nM; IC50 (Cytochrome P450 2D6): 782 nM; IC50 [2]: 557 nM
O=S(=O)(Cc1cccc(C(F)(F)F)c1)N1CCOc2ccc(-c3ccncc3)cc2C1 | 2290 nM | 157 nM | –
N#Cc1cccc(NC(=O)N2CCOc3ccc(-n4ccnc4)cc3C2)c1 | 110 nM | – | –
Cc1cc(-c2ccc3c(c2)-c2nnc(Cc4cccc(Cl)c4)n2CCO3)ccn1 | 593 nM | – | IC50 (Cytochrome P450 2C9): 1450 nM; IC50 (Cytochrome P450 3A4): 1060 nM; IC50 (Cytochrome P450 2D6): 1010 nM; IC50 [2]: 3860 nM
CCc1cc(-c2ccc3c(c2)-c2nnc(Nc4cccc(C(F)(F)F)c4)n2CCO3)ccn1 | 74 nM | – | fraction unbound [4]: 0.0034; half-life [5]: 1.4 h; IC50 (Cytochrome P450 2C9): 3540 nM; bioavailability [6]: 97%; IC50 (Cytochrome P450 3A4): > 50000 nM; Vd [7]: 2.6 L/kg; IC50 (Cytochrome P450 2D6): 2340 nM; IC50 [2]: 334 nM; clearance [8]: 14 mL/min/kg
COc1cccc(NC(=O)N2CCOc3ccc(-c4ccnc5ccccc45)cc3C2)c1 | 962 nM | 216 nM | –
O=C(Cc1cccc(C(F)(F)F)c1)N1CCOc2ccc(-c3ccncc3)cc2C1 | 1640 nM | 611 nM | –
Cc1cc(-c2ccc3c(c2)-c2nnc(Oc4ccccc4Cl)n2CCO3)ccn1 | 102 nM | – | IC50 (Cytochrome P450 2C9): > 50000 nM; IC50 (Cytochrome P450 3A4): > 50000 nM; IC50 (Cytochrome P450 2D6): 24300 nM; IC50 [2]: 3510 nM
COc1cccc(N(C)C(=O)N2CCOc3ccc(-c4ccncc4)cc3C2)c1 | > 20000 nM | > 20000 nM | –
Cc1cc(-c2ccc3c(c2)-c2nnc(Nc4cccc(Cl)c4)n2CCO3)ccn1 | – | – | fraction unbound [4]: 0.0337; half-life [5]: 2.5 h; IC50 (Cytochrome P450 2C9): 3440 nM; bioavailability [6]: 40%; IC50 (Cytochrome P450 3A4): 11800 nM; Vd [7]: 1.9 L/kg; IC50 (Cytochrome P450 2D6): 792 nM; clearance [8]: 7.8 mL/min/kg
COc1cccc(NC(=O)N2CCOc3ccc(-c4ccncc4OC)cc3C2)c1 | 187 nM | 486 nM | –
Cc1cc(-c2ccc3c(c2)-c2nnc(Oc4ccccc4OC(F)(F)F)n2CCO3)ccn1 | 89 nM | – | IC50 (Cytochrome P450 2C9): 26100 nM; IC50 (Cytochrome P450 3A4): > 50000 nM; IC50 (Cytochrome P450 2D6): 8650 nM; IC50 [2]: 2840 nM
